Test results reported in patent US20040151785A1, “Method for treating insulin resistance through hepatic nitric oxide” (DiaMedica Inc., priority 1998, published 2004).
Like-named read-outs stand apart in the source and are kept apart here.

Legend:
rats [1] = assay: Rapid insulin sensitivity test (RIST), modified euglycemic clamp, in anesthetized rats; format: in vivo, rat; details: for inhibition at 50 mg/kg: Rattus norvegicus, iv
Experimental: Surgical preparation. The left jugular vein was cannulated for glucose infusion. Spontaneous respiration was allowed through a tracheal tube. The blood samples (25 μl) were obtained through a right femoral arterial-venous loop (30). The right femoral artery was cannulated with the arterial side of the loop. The right femoral vein was cannulated with the venous side of the arterial-venous loop. Arterial blood pressure was monitored via the arterial-venous loop by clamping the silicon sleeve on the venous side of the loop. One of the advantages of using this loop is that blood samples can be taken directly from a moving stream of blood with no need to wash or flush sampling catheters. The arterial blood continuously flows through the loop into the venous side. Intravenous infusions, except glucose, were given through the venous side of the loop.

rats [2] = assay: Arterial blood pressure monitored via arterial-venous loop during RIST experiments; format: in vivo, rat; details: after atropine, group given intravenous L-NAME 1.0 mg/kg
Experimental: Surgical preparation. The left jugular vein was cannulated for glucose infusion. Spontaneous respiration was allowed through a tracheal tube. The blood samples (25 μl) were obtained through a right femoral arterial-venous loop (30). The right femoral artery was cannulated with the arterial side of the loop. The right femoral vein was cannulated with the venous side of the arterial-venous loop. Arterial blood pressure was monitored via the arterial-venous loop by clamping the silicon sleeve on the venous side of the loop. One of the advantages of using this loop is that blood samples can be taken directly from a moving stream of blood with no need to wash or flush sampling catheters. The arterial blood continuously flows through the loop into the venous side. Intravenous infusions, except glucose, were given through the venous side of the loop. After laparotomy, the portal vein was cannulated with a 24G (OPTIVA™, Johnson & Johnson Medical Inc.) intravenous catheter for intraportal drug administration.

cats = details: cited from earlier work

## N=C(N)NCCC[C@H](N)C(=O)O [L-arginine]
Rats [1]; read-out: inhibition of control RIST
  inhibition at 50 mg/kg: 53.8 ± 7.1%
Rats [1]; read-out: inhibition of the control response
  inhibition at 50 mg/kg: 48.8 ± 8.2%

## [NH-]c1c[n+](N2CCOCC2)no1 [SIN-1, 3-morpholinosyndnonimine]
Rats [1]; SIN-1 5.0 mg/kg intraportal after intraportal L-NMMA 0.73 mg/kg, n=5
  inhibition of the control RIST remaining: 24.0±11.6%
Rats [1]; SIN-1 5.0 mg/kg intravenous after intraportal L-NMMA 0.73 mg/kg, n=4
  inhibition of the control RIST remaining: 59.0±7.2%
Rats [1]; SIN-1 10.0 mg/kg intraportal after intraportal L-NMMA 0.73 mg/kg, n=5
  inhibition of the control RIST remaining: 0.6±5.8%
Rats [1]; SIN-1 10.0 mg/kg intraportal after surgical denervation of the hepatic anterior plexus, n=6
  inhibition of the control RIST remaining: 3.8±10.4%

## CN1[C@@H]2CC[C@H]1C[C@@H](OC(=O)C(CO)c1ccccc1)C2 (stereo partly drawn) [atropine]
Rats [2]
  blood pressure: 93.0±8.6 mmHg

## COc1ccccc1CNCCCCCCNCCCCCCCCNCCCCCCNCc1ccccc1OC [methoctramine]
cats
  dose required to produce a full / similar degree of insulin resistance: 10^−8 μmol/kg

## CN1CCN(CC(=O)N2c3ccccc3C(=O)Nc3cccnc32)CC1 [parenzepine]
cats
  dose achieving a similar degree of insulin resistance: 10^−7 mmol/kg
